These results are taken from US4976874A, “Control of biofouling in aqueous systems by non-polymeric quaternary ammonium polyhalides” (Great Lakes Chemical Corporation, priority 1989, dated 1990).

Read-outs that look alike come from different tables or passages of the source.

The subject of data set [1] is Pseudomonas aeruginosa. In words: % Kill of Pseudomonas aeruginosa. Type of data set: cell-based. To be noted: read-out: Percent Kill Pseudomonas aeruginosa; for killing at 0.34 µg/mL: 0.34 ppm free bromine; for killing at 0.2 µg/mL: 0.20 ppm free bromine; for killing at 0.23 µg/mL: 0.23 ppm free bromine; for killing at 0.25 µg/mL: 0.25 ppm free bromine. An excerpt: Quaternary ammonium polyhalides and surfactant mixtures thereof have biocidal properties in aqueous systems where oxidizing biocides are compatible; that is, in aqueous systems having a low halogen demand.
The data in Tables 3-5 indicate that the combination of a water soluble liquid quaternary ammonium polyhalide and a surfactant provides an enhanced efficacy over the liquid quaternary ammonium polyhalide alone. This may be a result of the surface active effect on exopolysaccharides and/or biological membranes.

The conditions of data set [2]: Japanese Patent Publication No. 49/14,411; cited from earlier work.
The conditions of data set [3]: Japanese Patent Publication No. 49/14,411; cited from earlier work. This is another data set of the same source.

In the case of `CC[N+](C)(C)C` [Compound 5, N-Ethyl-N,N,N-trimethylammonium tribromide], the killing at 0.34 µg/mL in data set [1] (1 min, 1 min) is 99.9%; in data set [1] (0.05 h, 3 min), 100%; in data set [1] (5 min, 5 min), 100%; in data set [1] (10 min, 10 min), 100%.
For the compound `C[N+](C)(C)CCO` [Compound 7, N-(2-Hydroxyethyl)-N,N,N-trimethylammonium tribromide], the killing at 0.2 µg/mL in data set [1] (1 min, 1 min) was 56.6%; in data set [1] (0.05 h, 3 min) it was 99.6%; in data set [1] (5 min, 5 min), 100%; in data set [1] (10 min, 10 min), 100%.
On to `COCCOCCN(CCOCCOC)CCOCCOC` [Compound 8, N,N,.N-tris(3,6-Dioxaheptyl)amine hydrotribromide], for which the killing at 0.23 µg/mL in data set [1] (1 min, 1 min) worked out at 99.9%; in data set [1] (0.05 h, 3 min), 100%; in data set [1] (5 min, 5 min) it was 100%; in data set [1] (10 min, 10 min) it was 100%.
Turning to `CCCCCCCC[N+](C)(C)CCCCCCCC` [Compound 2, N-N-Dimethyl-N,N-dioctylammonium dibromochloride], the killing at 0.23 µg/mL in data set [1] (1 min, 1 min) came out at 82%; in data set [1] (0.05 h, 3 min) it was 100%; in data set [1] (5 min, 5 min), 100%; in data set [1] (10 min, 10 min) it was 100%.
`CCCCCCCCCCCCCCCC[n+]1ccccc1` [cetylpyridinium tribromide]: in data set [2], the biocidal properties result is “having biocidal properties”. For the same compound, the water solubility result in data set [3] is reported as “water insoluble”.
Consider `CCC[N+](CCOCCOC)(CCOCCOC)CCOCCOC` [Compound 9, N-Propyl-N,N,N-tris(3,6-dioxaheptyl)-ammonium tribromide], for which the killing at 0.23 µg/mL in data set [1] (1 min, 1 min) was 21.5%; in data set [1] (0.05 h, 3 min), 82%; in data set [1] (5 min, 5 min) it was 100%; in data set [1] (10 min, 10 min), 100%.
With `CCCCCCCCN(C)C` [Compound 4, N,N-Dimethyl-N-octylamine hydrotribromide], the killing at 0.34 µg/mL stood at 99.9% in data set [1] (1 min, 1 min); 100% in data set [1] (0.05 h, 3 min); 100% in data set [1] (5 min, 5 min); 100% in data set [1] (10 min, 10 min).
Regarding `CC[N+](C)(C)C` [Compound 14, N-Ethyl-N,N,N-tri-methylammonium dichlorobromide], the killing at 0.2 µg/mL turned out to be 100% in data set [1] (1 min, 1 min); 100% in data set [1] (0.05 h, 3 min); 100% in data set [1] (5 min, 5 min); 100% in data set [1] (10 min, 10 min).
Take `CCCCCCCCCCCCCCCC[N+](C)(C)C.[Br-]` [cetyltrimethylammonium bromide]: the biocidal properties result in data set [2] is recorded as “having biocidal properties”.
As for `CCCCCCCCCCCCCCCC[N+](C)(C)C` [cetyltrimethylammonium tribromide], the biocidal properties entry in data set [2] was “having biocidal properties”. Further, in data set [3], the water solubility result is reported as “water insoluble”.
As for `CCC[N+](C)(C)CC` [Compound 6, N,N-Dimethyl-N-ethyl-N-propylammonium pentabromide], the killing at 0.34 µg/mL in data set [1] (1 min, 1 min) was determined as 99.6%; in data set [1] (0.05 h, 3 min), 100%; in data set [1] (5 min, 5 min) it was 100%; in data set [1] (10 min, 10 min) it was 100%.
On to `CCC[N+](C)(C)CC` [Compound 13, N,N-Dimethyl-N-ethyl-N-propylammonium dichlorobromide], for which the killing at 0.25 µg/mL in data set [1] (1 min, 1 min) was 100%; in data set [1] (0.05 h, 3 min), 100%; in data set [1] (5 min, 5 min) it was 100%; in data set [1] (10 min, 10 min), 100%.
Consider `CCCCCCCCCC[N+](C)(C)CCCCCCCCCC` [Compound 15, N,N-Didecyl-N,N-dimethyl-ammonium dibromochloride], for which the killing at 0.3 µg/mL in data set [1] (1 min), in data set [1] (0.05 h), in data set [1] (5 min) and in data set [1] (10 min) was 100% each time.
In the case of `COCCOCC[N+](C)(CCOCCOC)CCOCCOC` [Compound 3, N-Methyl-N,N,N-tris(3,6-dioxaheptyl)ammonium diobromoiodide], the killing at 0.34 µg/mL in data set [1] (1 min, 1 min) worked out at 98.6%; in data set [1] (0.05 h, 3 min), 100%; in data set [1] (5 min, 5 min) it was 100%; in data set [1] (10 min, 10 min), 100%.
With `CCOCC[N+](C)(C)C` [Compound 12, N-Ethoxyethyl-N,N,N-trimethylammonium tribromide], the killing at 0.34 µg/mL in data set [1] (1 min, 1 min) is 100%; in data set [1] (0.05 h, 3 min) it was 100%; in data set [1] (5 min, 5 min) it was 99.9%; in data set [1] (10 min, 10 min) it was 100%.
As to `CCCCCCCCCCCCCC[N+](C)(C)Cc1ccccc1` [Compound 11, N-Benzyl-N,N-dimethyl-N-myristyl-ammonium dibromochloride], the killing at 0.34 µg/mL stood at 100% in data set [1] (1 min, 1 min); 100% in data set [1] (0.05 h, 3 min); 100% in data set [1] (5 min, 5 min); 100% in data set [1] (10 min, 10 min).
